The source made the active and inactive calls.
Tests used:
[1] = target: T1, Tyrosine-protein phosphatase non-receptor type 22 (Homo sapiens, UniProt Q9Y2R2); assay: inhibitors of LYP phosphatase, biochemical, fluorescence intensity, uHTS (AID 1779)
T1 sequence (Q9Y2R2 whole entry): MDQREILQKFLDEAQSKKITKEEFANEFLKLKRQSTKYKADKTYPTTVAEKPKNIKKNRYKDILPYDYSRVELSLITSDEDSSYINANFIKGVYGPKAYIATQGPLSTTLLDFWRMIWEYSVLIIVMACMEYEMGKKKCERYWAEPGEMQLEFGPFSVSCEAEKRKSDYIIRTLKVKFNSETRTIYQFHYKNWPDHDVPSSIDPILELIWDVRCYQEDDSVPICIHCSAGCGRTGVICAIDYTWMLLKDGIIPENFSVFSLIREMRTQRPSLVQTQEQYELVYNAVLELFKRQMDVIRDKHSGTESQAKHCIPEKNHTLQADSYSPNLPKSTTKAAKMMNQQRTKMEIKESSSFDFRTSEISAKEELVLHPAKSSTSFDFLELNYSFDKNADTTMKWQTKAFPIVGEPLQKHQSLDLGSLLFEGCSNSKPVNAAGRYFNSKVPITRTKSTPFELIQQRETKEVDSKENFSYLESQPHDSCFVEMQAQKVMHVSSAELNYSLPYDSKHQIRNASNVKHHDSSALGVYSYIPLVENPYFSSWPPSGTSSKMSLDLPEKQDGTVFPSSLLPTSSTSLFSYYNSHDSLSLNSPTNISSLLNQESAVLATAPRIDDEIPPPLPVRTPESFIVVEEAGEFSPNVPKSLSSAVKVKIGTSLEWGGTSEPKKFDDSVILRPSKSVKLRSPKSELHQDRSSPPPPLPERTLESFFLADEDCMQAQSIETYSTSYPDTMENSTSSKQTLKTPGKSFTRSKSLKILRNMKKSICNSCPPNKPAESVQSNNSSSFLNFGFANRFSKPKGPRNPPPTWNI

[2] = target: T1, Tyrosine-protein phosphatase non-receptor type 22; assay: LYP (PTPN22) phosphatase inhibitor potency, SAR follow-up, biochemical, pCAP fluorogenic substrate, fluorescence, set 3 (AID 449727); assay type: functional

For `O=C(O)COc1ccc(/C=N/NC(=O)c2ccc(-c3csc(Nc4ccc(Cl)cc4)n3)cc2)cc1`, the IC50 [1] was > 99 µM (inactive) and the IC50 [2] was 0.369 µM (active).

From ChEMBL document CHEMBL1201862, “PubChem BioAssay data set” (2004)
